Activity calls are given as the source filed them. The rule behind the calls is not given here.
Assays:
COLO-829 = assay: cells; settings: Homo sapiens, COLO-829, 72 h
SK-MEL-2 = assay: cells; settings: Homo sapiens, SK-MEL-2, 72 h
HCT-116 = assay: cells; settings: Homo sapiens, HCT-116, 72 h
Calu-6 = assay: cells; settings: Homo sapiens, Calu-6, 72 h
cells [1] = settings: Homo sapiens, SW-620, 1 h
cells [2] = settings: Homo sapiens, A-375, 1 h
Mus musculus = species on record: Mus musculus; settings: SCID, dose 100.0 mg/kg, route po, time 15.0 day
SK-MEL3 = assay: cells; settings: Homo sapiens, SK-MEL3, 72 h
LoVo = assay: cells; settings: Homo sapiens, 72 h
NCI-H1299 = assay: cells; settings: Homo sapiens, NCI-H1299, 72 h
A-375 = assay: cells; settings: Homo sapiens, A-375, 72 h
in vivo = settings: nude, mouse, plasma, po, 1000 mg/kg
cells [3] = settings: HT716, 72 h
WM 266-4 = assay: cells; settings: Homo sapiens, WM 266-4, 72 h
animal or person = settings: Mus musculus, COLO 205, po, 336 h, read-out: INH
SW-620 = assay: cells; settings: Homo sapiens, SW-620, 72 h
COLO 205 = assay: cells; settings: Homo sapiens, COLO 205, 72 h
NCI-H460 = assay: cells; settings: Homo sapiens, NCI-H460, 72 h
cells [4] = settings: Homo sapiens, COLO-829, 1 h
cells [5] = settings: Homo sapiens, COLO 205, 1 h

GI50 (COLO-829): 1700 nM
GI50 (SK-MEL-2): 27 µM
GI50 (HCT-116): 27 µM
GI50 (Calu-6): 26 µM
IC50 (cells [1]): > 40 µM
IC50 (cells [2]): 46 nM
GI50 (SK-MEL3): 27 µM
GI50 (LoVo): 29 µM
GI50 (NCI-H1299): 41 µM
GI50 (A-375): 500 nM
concentration at 336 h (in vivo): ≤ 600 µM
GI50 (SW-620): 13 µM
GI50 (COLO 205): 310 nM
GI50 (NCI-H460): 24 µM
IC50 (cells [4]): 44 nM
IC50 (cells [5]): 14 nM
Compound: CCCS(=O)(=O)Nc1ccc(F)c(C(=O)c2c[nH]c3ncc(Cl)cc23)c1F [PLX-4720]
inhibition (Mus musculus): Active
GI50 (cells [3]): 10 µM
GI50 (WM 266-4): 1500 nM
inhibition in vivo at 20 mg/kg (animal or person): 43%

Source: ChEMBL document CHEMBL5705883, “Discovery of a selective inhibitor of oncogenic B-Raf kinase with potent antimelanoma activity” (Proc Natl Acad Sci U S A, 2008)
